Results from patent US10792289B2 (Horizon Orphan LLC, priority 2009, dated 2020).

Tested on: stable CF patients
Assay: Phase 1b study: pulmonary function tests (FEV1)
Format: in vivo, human
Procedure: All patients had had P. aeruginosa cultured from sputum within the previous 24 months and at the screening visit. Study drug was administered twice daily for up to 14 days at three doses by aerosol using a PART eFlow device. Respirable delivered doses (RDD) were approximately 40 mg, 80 mg, and 120 mg per treatment, corresponding to loaded doses of 78 mg, 175 mg, and 260 mg, respectively. Thus, the estimated total daily RDDs were 80 mg, 160 mg, and 240 mg. Study drugs were administered at 30 mg/ml (for 40 mg dose) or 50 mg/ml (for 80 mg and 120 mg doses).
In Table 3, relative change from baseline (CBG) was calculated as ‘Result’ FEV1 minus ‘Baseline’ FEV1 divided by ‘Baseline’ FEV1.

[1] = 80 mg RDD BID, Day 1 predose baseline
[2] = 120 mg RDD BID, Day 1 predose baseline

## C[C@H]1COc2c(N3CCN(C)CC3)c(F)cc3c(=O)c(C(=O)O)cn1c23 [Levofloxacin, levofloxacin]
40 mg RDD BID, Day 1 predose baseline
  FEV1, median: 2.30 L
40 mg RDD BID, Day 2 predose
  FEV1, median: 2.32 L
40 mg RDD BID, Day 7
  FEV1, median: 2.30 L
40 mg RDD BID, Day 14 predose
  FEV1, median: 2.30 L
40 mg RDD BID, Day 21/ET
  FEV1, median: 2.07 L
[1]
  FEV1, mean: 2.06 L
  FEV1, median: 1.95 L
80 mg RDD BID, Day 2 predose
  FEV1, median: 2.00 L
80 mg RDD BID, Day 7
  FEV1, median: 2.08 L
80 mg RDD BID, Day 14 predose
  FEV1, median: 2.10 L
80 mg RDD BID, Day 21/ET
  FEV1, mean: 2.03 L
  FEV1, median: 2.04 L
[2]
  FEV1, mean: 2.56 L
  FEV1, median: 2.23 L
120 mg RDD BID, Day 2 predose
  FEV1, mean: 2.73 L
  FEV1, median: 2.38 L
120 mg RDD BID, Day 7
  FEV1, mean: 3.07 L
  FEV1, median: 2.40 L
120 mg RDD BID, Day 14 predose
  FEV1, mean: 3.12 L
  FEV1, median: 2.57 L
120 mg RDD BID, Day 21/ET
  FEV1, mean: 2.75 L
  FEV1, median: 2.48 L
